Laboratory results as given in PubChem BioAssay AID179 (DTP/NCI, 2004).
Where “and” joins values, the source holds several entries; their conditions need not be identical. Equal values may be shown once. Calls of active or inactive are those of the source.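 Rule for the calls: active = compounds giving half or more protection of infected cells from virus-caused growth loss, again on retest; inactive = the rest.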

System: CEM cells HIV-1 protection, formazan growth assay
Assay: NCI AIDS Antiviral Assay
Conditions: for IC50: measured here: growth of uninfected CEM cells
In short: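 Soluble formazan readout of cell growth; CEM cells ± HIV-1; 5 drug concs. ≥50% protection → retest; ≥50% again = moderately active; reproducible 100% = confirmed active.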

With `N/C(=C\c1ccc(/C=C(\NC(=O)c2ccccc2)c2nc3c([nH]2)C(=O)c2ccccc2C3=O)cc1)c1nc2c([nH]1)C(=O)c1ccccc1C2=O` the outcome was “inactive”.
In the case of `COc1cccc(C=C(C(C)=O)C(C)=O)c1`, the EC50 is reported as > 120 µM and the IC50 is reported as 58.9 µM.
For `CCC12CCCN(Cc3ccccc3)C1c1c(n(C)c3ccccc13)C(C(=O)OC)C2` (stereo not drawn), the EC50 was > 32.4 µM and the IC50 was > 32.4 µM.
With `CC1C2CC(CC2=O)C1(C)C` (stereo not drawn) the EC50 was > 1620 µM and the IC50 was > 1620 µM.
With `CSc1nc(N)n(C(=O)c2ccccc2Br)n1` the EC50 was > 417 µM and the IC50 was > 417 µM.
`Nn1c(CCCCCCCCc2nnc(-c3c(O)ccc4ccccc34)n2N)nnc1-c1c(O)ccc2ccccc12` was tested, and the EC50 was > 200 µM and the IC50 was > 200 µM.
For `O=[N+]([O-])c1cc(F)ccc1Sc1ccccc1`, the EC50 was > 200 µM and the IC50 was 95.5 µM.
With `O=C1OC(c2ccccc2)=N/C1=C\c1ccccc1Cl` the EC50 was > 35.5 µM and the IC50 was > 35.5 µM.
With `Cn1c2c(c3ccccc31)CCN1OCC=C[C@@H](C(=O)O)[C@@H]21` the EC50 was > 200 µM and the IC50 was > 200 µM.
`COc1ccc(CN(Cc2ccccc2)c2ncccn2)cc1` was tested, and the EC50 was > 17 µM and the IC50 was > 17 µM.
For `CCOC(=O)c1cnc2[nH]ccn2c1=O`, the EC50 was > 200 µM and the IC50 was > 200 µM.
`C[C@@H](O)CCC(=O)c1ccoc1` was tested, and the EC50 was > 1480 µM and the IC50 was > 1480 µM.
With `COc1ccc2[nH]c(C(=O)N3CC(CCl)c4ccc(N)cc43)cc2c1` (stereo not drawn) the EC50 was > 2 µM and the IC50 was 0.389 µM.
For `COc1ccc(/C=C/C(=N/NC(=O)N/N=C(/C=C/c2ccc(OC)cc2)C(C)(C)CN2CCCCC2)C(C)(C)CN2CCCCC2)cc1`, the EC50 was > 200 µM and the IC50 was 2.09 µM.
With `COc1cc(Cc2nnc(N)[nH]c2=O)cc(OC)c1OC` the EC50 was > 17.8 µM and the IC50 was > 17.8 µM.
With `CCOC(=O)c1[nH]cnc1/N=N/N(C)N` the EC50 was > 200 µM and the IC50 was 21.4 µM.
In the case of `C=CCOC1=C(OCC=C)C(C2COC(C)(C)O2)OC1=O` (stereo not drawn), the EC50 is reported as > 200 µM and the IC50 is reported as 70.8 µM.
`CC(C)(C)CNC(=O)NCn1cc(-c2ccccc2)nn1` was tested, and the EC50 was > 200 µM and the IC50 was > 200 µM.
For `COc1c2occc2c(N=Cc2ccc([N+](=O)[O-])cc2)c2ccc(=O)oc12`, the EC50 was > 34.7 µM and the IC50 was > 34.7 µM.
In the case of `C=C1C(=O)OC2/C=C(\C)CC(O)/C=C(\C)CC(OC(=O)/C(=C\C)COC(C)=O)C12` (stereo not drawn), the EC50 is reported as > 115 µM and the IC50 is reported as 0.407 µM.
In the case of `COc1cccc(/C=C/c2nccc3ccccc23)c1OC`, the EC50 is reported as > 200 µM and the IC50 is reported as 12.9 µM.
With `CCOC(=O)C1=C(C)N(NC(N)=O)C(C)(O)C12CCOC2=O` (stereo not drawn) the EC50 was > 794 µM and the IC50 was > 794 µM.
With `CCOC(=O)/C(=C\c1ccc(-c2ccccc2)cc1)C(C)=O` the EC50 was > 45.7 µM and the IC50 was > 45.7 µM.
For `O=C1OC(c2ccccc2)=N/C1=C\c1ccccc1O`, the EC50 was > 26.9 µM and the IC50 was > 26.9 µM.
With `COc1ccc(C2c3cc(OC)c(OC)cc3CC3C(=O)OCC32)cc1OC` (stereo not drawn) the EC50 was > 200 µM and the IC50 was > 200 µM.
In the case of `N#Cc1cccc(/C=N/N=C(\N)NO)c1`, the EC50 is reported as > 479 µM and the IC50 is reported as 37.2 µM.
For `Cc1ccc(C)c(NC(=O)C(=O)C(C(=O)c2ccc3ccccc3c2)C2OC(=O)c3ccccc32)c1` (stereo not drawn), the EC50 was > 53.7 µM and the IC50 was 23.4 µM.
For `O=C1c2c(O)cccc2Cc2cccc(O)c21`, the outcome was “inactive”.
For `CCNC(=O)c1ccccc1S(C)=O` (stereo not drawn), the EC50 was > 200 µM and the IC50 was > 200 µM.
For `CC(Nc1n[nH]c(=O)c2c1nnn2Cc1ccccc1)c1ccccc1` (stereo not drawn), the EC50 was 55 µM and 126 µM and the IC50 was 97.7 µM and 447 µM.
For `N#CC(C#N)c1ccc(C(=O)N2CCC[C@H]2CO)cc1`, the outcome was “inactive”.
`CC(=O)NC(CCCCN(Cc1ccccc1)C(=O)N(C)N=O)C(=O)NCc1ccccc1` (stereo not drawn) was tested, and the EC50 was > 110 µM and the IC50 was 93.3 µM.
With `CCOC(=O)C(=O)Nc1cccc(Cl)c1C` the EC50 was > 741 µM and the IC50 was > 741 µM.
With `COc1ccccc1NC(=O)/C(=C/c1ccccc1)C(C)=O` the EC50 was > 24.5 µM and the IC50 was 18.6 µM.
In the case of `COC(=O)/C(=N\NC(N)=S)C(C(=O)OC)C(=O)C(=O)Nc1ccc(C)cc1` (stereo not drawn), the EC50 is reported as > 66.1 µM and the IC50 is reported as > 66.1 µM.
`CCCCN(C(=O)c1ccccc1)C1CCC(=O)c2[nH]c3ccccc3c21` (stereo not drawn) was tested, and the EC50 was > 200 µM and the IC50 was 17 µM.
With `C[N+](C)(Cc1ccc(NC(=O)CCCC(=O)ON2C(=O)CCC2=O)cc1)c1ccccc1` the EC50 was > 200 µM and the IC50 was 135 µM.
For `CC(=O)Nc1ccc(C(=O)N2N=C(C)/C(=C/c3cccc([N+](=O)[O-])c3)C2=O)cc1`, the EC50 was > 47.9 µM and the IC50 was > 47.9 µM.
With `CCN(CC)c1ccc(N=Nc2ccc(-c3nc4cccn(C)c-4n3)cc2)cc1` the EC50 was > 7.41 µM and the IC50 was > 7.41 µM.
For `CC[C@@]1(C[C@H]2C[C@@]3(C(=O)OC)c4[nH]c5ccccc5c4CCN3C2=S)COC2(CCCCC2)O1`, the EC50 was > 200 µM and the IC50 was > 200 µM.
For `COc1ccc(C(C#N)NC23CC4CC(CC(C4)C2)C3)cc1` (stereo not drawn), the outcome was “inactive”.
